Experimental data published in ChEMBL document CHEMBL1201862, “PubChem BioAssay data set” (2004).
The source made the active and inactive calls.

Key:
[1] = target: Ras and Rab interactor 1/Tyrosine-protein kinase ABL1 (Homo sapiens, UniProt P00519+Q13671); format: functional;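 note: biochemical TR-FRET dose-response test measuring inhibition of binding between Rin1 and Abl proteins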
[2] = inhibitors of intracellular T. cruzi replication, confirmation, NIH3T3 host cells, beta-gal luminescence (AID 2044); format: functional, cell-based;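 note: intracellular parasites grown in NIH/3T3 mouse fibroblasts as host cells; luminescent beta-galactosidase reporter signal from transgenic T. cruzi replicating inside host cells; inhibitors lower the luminescence signal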
[3] = tested on: A-375; assay: A375 melanoma cell viability reduction, dose response, counter-screen for MITF modulator project, cherry-pick samples, set 2 (AID 540335); format: functional, cell-based; details: Homo sapiens
[4] = tested on: INS1; assay: beta cell apoptosis inhibitors, cytokine rescue, dose response, luminescence, retest (AID 449756); format: functional, cell-based; details: Rattus norvegicus;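 note: cell death triggered by IL-1 beta plus TNF-alpha plus IFN-gamma mixture; protective hits raise ATP signal compared with cytokine alone wells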
[5] = target: T1, Microphthalmia-associated transcription factor (Homo sapiens, UniProt O75030); assay: TRPM1 promoter luciferase signal decrease, dose response, MITF inhibitor project, cell-based, SK-MEL-5, cherry-picked, set 3 (AID 493073); format: functional
T1 sequence (O75030 whole entry): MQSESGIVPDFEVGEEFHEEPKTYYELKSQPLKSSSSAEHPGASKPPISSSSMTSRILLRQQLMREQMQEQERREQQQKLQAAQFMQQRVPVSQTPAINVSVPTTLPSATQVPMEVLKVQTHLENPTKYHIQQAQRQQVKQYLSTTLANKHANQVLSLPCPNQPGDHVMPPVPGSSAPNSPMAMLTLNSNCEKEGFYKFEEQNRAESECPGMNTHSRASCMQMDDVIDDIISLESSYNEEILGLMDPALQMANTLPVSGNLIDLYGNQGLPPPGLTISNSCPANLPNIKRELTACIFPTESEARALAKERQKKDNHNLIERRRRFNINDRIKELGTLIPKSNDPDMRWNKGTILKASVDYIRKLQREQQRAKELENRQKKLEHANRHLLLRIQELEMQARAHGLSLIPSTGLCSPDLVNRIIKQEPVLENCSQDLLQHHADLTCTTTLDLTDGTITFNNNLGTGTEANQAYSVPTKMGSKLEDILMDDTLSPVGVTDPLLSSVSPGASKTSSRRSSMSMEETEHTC

[6] = target: SWI/SNF-related matrix-associated actin-dependent regulator of chromatin subfamily A member 2 (Homo sapiens, UniProt P51531); assay: Luminescence-based cell-based high throughput dose response assay to identify activators of the function of SWI/SNF related, matrix associated, actin dependent regulator of chromatin, subfamily a, member 2 (SMARCA2, BRM).; format: functional
[7] = target: T2, DNA repair protein RAD52 homolog (Homo sapiens, UniProt P43351); format: functional, biochemical
T2 sequence (P43351 whole entry): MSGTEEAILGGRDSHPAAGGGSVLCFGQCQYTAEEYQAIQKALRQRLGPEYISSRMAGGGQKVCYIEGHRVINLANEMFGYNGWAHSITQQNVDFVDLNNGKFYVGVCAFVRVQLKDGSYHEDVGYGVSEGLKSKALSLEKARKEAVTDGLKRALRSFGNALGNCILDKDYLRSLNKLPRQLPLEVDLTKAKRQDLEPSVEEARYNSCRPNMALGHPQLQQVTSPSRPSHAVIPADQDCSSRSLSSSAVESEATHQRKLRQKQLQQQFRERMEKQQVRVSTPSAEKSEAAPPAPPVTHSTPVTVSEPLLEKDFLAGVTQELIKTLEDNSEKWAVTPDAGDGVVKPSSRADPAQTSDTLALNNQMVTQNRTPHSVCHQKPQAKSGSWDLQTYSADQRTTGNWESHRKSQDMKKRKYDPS

[8] = Counterscreen for activators of the function of SWI/SNF related, matrix associated, actin dependent regulator of chromatin, subfamily a, member 2 (SMARCA2, BRM): Luminescence-based cell-based high throughput dose response assay to identify non-selective compounds using the VP16 reporter assay.; format: functional
[9] = target: ATP-dependent molecular chaperone HSP82 (Candida albicans (strain WO-1) (Yeast), UniProt C4YTQ8); assay: loss of DOC-induced GRE-beta-galactosidase reporter signal, dose response, Hsp90 inhibitor project, S. cerevisiae, luminescence (AID 2400); format: functional, cell-based;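 note: beta-galactosidase luminescence from glucocorticoid response element reporter as proxy for Hsp90 function; inhibitor potency where signal loss means Hsp90 inhibition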
Chain of ATP-dependent molecular chaperone HSP82 (C4YTQ8 whole entry): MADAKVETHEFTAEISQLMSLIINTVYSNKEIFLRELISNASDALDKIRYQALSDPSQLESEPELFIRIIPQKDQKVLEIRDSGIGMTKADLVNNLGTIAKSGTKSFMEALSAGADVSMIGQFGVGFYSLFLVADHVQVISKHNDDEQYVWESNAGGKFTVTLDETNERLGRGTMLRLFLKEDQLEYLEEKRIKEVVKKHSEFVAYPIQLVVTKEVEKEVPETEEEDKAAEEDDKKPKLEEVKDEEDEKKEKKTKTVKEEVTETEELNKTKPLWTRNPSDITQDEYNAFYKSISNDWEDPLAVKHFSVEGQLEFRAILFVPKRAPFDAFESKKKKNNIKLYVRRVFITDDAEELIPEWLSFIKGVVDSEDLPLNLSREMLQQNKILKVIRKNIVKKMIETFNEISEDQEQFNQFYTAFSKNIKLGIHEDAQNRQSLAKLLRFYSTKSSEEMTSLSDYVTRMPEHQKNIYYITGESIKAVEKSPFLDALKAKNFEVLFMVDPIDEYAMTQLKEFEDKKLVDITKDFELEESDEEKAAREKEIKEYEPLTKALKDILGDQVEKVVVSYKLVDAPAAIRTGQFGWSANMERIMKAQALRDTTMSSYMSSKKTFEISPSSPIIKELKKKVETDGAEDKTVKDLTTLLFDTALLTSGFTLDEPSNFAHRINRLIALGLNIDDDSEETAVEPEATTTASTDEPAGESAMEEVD

[10] = NIH-3T3 fibroblast cytotoxicity, dose response, cytotoxicity control, cell-based, fluorescence, Alamar Blue, secondary assay (AID 2327); format: functional;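 note: NIH-3T3 mouse fibroblasts cultured with fluconazole at 8 µg/mL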
[11] = target: T3, Serine/threonine-protein phosphatase (Candida dubliniensis (strain CD36 / CBS 7987 / NCPF 3949 / NRRLY-17841) (Yeast), UniProt B9W6M3); assay: calcineurin pathway inhibitors in yeast reporter, dose response, S. cerevisiae, CDRE-lacZ, luminescence, secondary (AID 2388); format: functional, cell-based;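 note: yeast reporter cells carrying a calcineurin-responsive lacZ construct stimulated with calcium chloride; luminescent beta-galactosidase reporter signal in whole cells rather than isolated phosphatase activity; potency for inhibition where a drop in reporter signal means calcineurin blockade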
T3 sequence (B9W6M3 whole entry): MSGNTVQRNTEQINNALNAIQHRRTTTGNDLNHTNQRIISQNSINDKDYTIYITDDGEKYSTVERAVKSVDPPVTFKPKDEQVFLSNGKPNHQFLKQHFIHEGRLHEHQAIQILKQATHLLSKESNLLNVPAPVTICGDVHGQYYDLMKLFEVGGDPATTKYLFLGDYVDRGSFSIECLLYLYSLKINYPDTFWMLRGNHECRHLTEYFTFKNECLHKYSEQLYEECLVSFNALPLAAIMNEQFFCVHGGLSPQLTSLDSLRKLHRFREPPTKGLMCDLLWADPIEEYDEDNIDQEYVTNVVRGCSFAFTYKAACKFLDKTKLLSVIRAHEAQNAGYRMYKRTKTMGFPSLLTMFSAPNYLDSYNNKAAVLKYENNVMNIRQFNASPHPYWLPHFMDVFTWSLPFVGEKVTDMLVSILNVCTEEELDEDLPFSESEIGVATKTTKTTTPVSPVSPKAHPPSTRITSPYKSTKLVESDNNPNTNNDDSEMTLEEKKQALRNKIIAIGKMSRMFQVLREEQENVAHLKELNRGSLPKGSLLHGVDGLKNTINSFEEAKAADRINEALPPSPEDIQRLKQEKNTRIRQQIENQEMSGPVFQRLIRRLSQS

[12] = cytotoxicity toward NIH3T3 fibroblasts, dose response, counter-screen, cell-based, ATP luminescence, mouse fibroblasts (AID 2010); format: functional;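 note: cells exposed to compound for about 90 hours before reading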
[13] = C. albicans growth with fluconazole, confirmation, fluorescence, retest (AID 2467); format: functional, cell-based
[14] = target: Cyclin-dependent kinase 19 (Homo sapiens, UniProt Q9BWU1); assay: Navigating the Kinome. Panel member name: CDC2L6; format: functional
Chain of Cyclin-dependent kinase 19 (Q9BWU1 whole entry): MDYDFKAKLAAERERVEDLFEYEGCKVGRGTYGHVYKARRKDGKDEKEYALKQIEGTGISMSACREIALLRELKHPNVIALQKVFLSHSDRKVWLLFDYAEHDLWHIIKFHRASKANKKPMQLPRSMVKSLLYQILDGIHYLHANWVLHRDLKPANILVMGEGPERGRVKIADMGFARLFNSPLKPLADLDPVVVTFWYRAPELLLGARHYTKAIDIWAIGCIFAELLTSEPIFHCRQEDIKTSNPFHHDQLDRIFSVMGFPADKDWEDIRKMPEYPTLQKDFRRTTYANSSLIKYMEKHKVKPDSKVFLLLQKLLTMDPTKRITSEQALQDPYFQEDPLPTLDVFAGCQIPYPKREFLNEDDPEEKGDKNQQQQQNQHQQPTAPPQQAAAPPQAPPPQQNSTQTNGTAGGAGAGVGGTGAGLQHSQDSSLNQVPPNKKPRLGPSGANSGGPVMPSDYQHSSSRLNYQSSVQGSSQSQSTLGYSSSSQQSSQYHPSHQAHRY

[15] = target: Dual specificity protein kinase CLK4 (Homo sapiens, UniProt Q9HAZ1); format: functional
Chain of Dual specificity protein kinase CLK4 (Q9HAZ1 whole entry): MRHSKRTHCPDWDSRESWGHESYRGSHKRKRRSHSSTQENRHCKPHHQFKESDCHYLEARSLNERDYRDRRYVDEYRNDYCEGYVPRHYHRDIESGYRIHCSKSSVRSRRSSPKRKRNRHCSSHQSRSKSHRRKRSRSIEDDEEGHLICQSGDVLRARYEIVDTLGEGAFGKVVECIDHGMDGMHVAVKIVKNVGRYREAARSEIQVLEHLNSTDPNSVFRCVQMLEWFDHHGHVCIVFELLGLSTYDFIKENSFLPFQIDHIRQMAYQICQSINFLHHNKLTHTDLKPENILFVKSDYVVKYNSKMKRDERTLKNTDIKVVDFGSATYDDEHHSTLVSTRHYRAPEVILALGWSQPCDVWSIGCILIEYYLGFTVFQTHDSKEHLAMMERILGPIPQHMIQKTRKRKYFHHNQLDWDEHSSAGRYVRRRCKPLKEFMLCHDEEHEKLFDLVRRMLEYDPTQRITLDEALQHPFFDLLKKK

[16] = target: Aurora kinase B (Homo sapiens, UniProt Q96GD4); format: functional
Chain of Aurora kinase B (Q96GD4 whole entry): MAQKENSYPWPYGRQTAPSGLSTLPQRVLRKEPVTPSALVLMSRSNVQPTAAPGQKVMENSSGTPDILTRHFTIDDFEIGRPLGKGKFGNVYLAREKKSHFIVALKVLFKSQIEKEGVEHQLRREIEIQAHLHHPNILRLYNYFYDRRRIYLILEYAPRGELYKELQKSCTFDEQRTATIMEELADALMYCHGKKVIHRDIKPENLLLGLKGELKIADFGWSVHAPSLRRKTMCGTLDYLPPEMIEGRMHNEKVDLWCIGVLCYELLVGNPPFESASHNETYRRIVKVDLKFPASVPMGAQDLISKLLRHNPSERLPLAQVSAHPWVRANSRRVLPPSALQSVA

[17] = target: T4, Aurora kinase A (Homo sapiens, UniProt O14965); format: functional;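 note: value from the Navigating the Kinome kinase panel profiling, panel entry STK6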
T4 sequence (O14965 whole entry): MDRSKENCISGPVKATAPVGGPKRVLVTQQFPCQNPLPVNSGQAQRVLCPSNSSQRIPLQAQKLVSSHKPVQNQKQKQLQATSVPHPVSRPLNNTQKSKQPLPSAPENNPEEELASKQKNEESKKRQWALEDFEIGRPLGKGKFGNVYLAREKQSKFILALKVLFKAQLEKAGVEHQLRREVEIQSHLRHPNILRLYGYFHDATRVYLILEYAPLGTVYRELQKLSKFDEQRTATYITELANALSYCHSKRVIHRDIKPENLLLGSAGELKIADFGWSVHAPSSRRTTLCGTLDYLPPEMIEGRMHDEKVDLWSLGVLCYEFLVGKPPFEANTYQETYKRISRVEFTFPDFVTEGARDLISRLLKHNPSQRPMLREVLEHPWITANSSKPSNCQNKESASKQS

[18] = target: Inhibitor of nuclear factor kappa-B kinase subunit epsilon (Homo sapiens, UniProt Q14164); assay: Navigating the Kinome. Panel member name: IKBKE; format: functional
[19] = target: CAAX prenyl protease 2 (Homo sapiens, UniProt Q9Y256); assay: human Rce1 protease inhibitors, dose response, biochemical, yeast membranes, quenched-peptide fluorescence, cherry-pick (AID 588849)
[20] = target: Trypsin (Sus scrofa, UniProt P00761); assay: porcine trypsin inhibitors, dose response, selectivity assay for Rce1 protease inhibitor project, biochemical, quenched peptide fluorescence, cherry-pick (AID 488789)
Chain of Trypsin (P00761 whole entry): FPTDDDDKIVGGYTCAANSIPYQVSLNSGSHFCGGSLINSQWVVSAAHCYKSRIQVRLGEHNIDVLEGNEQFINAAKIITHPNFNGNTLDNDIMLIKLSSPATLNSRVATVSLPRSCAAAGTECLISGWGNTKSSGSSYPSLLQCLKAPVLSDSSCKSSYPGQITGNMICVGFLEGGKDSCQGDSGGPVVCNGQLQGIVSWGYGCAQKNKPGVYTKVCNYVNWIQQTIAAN

[21] = target: CAAX prenyl protease 2 (Saccharomyces cerevisiae S288c, UniProt Q03530); format: biochemical
[22] = target: Activin receptor type-1 (Homo sapiens, UniProt Q04771); assay: Navigating the Kinome. Panel member name: ACVR1; format: functional
Chain of Activin receptor type-1 (Q04771 whole entry): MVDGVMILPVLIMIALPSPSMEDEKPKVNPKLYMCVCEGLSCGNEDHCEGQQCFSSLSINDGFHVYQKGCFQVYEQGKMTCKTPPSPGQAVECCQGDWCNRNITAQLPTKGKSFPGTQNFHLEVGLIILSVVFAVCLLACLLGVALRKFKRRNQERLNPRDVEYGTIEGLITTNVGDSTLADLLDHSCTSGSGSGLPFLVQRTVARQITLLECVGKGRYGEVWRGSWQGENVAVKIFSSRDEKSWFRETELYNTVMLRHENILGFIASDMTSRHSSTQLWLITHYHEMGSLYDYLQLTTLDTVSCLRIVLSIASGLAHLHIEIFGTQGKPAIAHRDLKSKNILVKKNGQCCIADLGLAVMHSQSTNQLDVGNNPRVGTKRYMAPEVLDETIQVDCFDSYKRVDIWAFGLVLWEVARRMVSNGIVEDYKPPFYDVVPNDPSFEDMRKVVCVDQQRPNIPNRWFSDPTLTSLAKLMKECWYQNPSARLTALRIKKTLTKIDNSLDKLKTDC

[23] = target: Cyclin-dependent kinase 8 (Homo sapiens, UniProt P49336); assay: Navigating the Kinome. Panel member name: CDK8; format: functional
Chain of Cyclin-dependent kinase 8 (P49336 whole entry): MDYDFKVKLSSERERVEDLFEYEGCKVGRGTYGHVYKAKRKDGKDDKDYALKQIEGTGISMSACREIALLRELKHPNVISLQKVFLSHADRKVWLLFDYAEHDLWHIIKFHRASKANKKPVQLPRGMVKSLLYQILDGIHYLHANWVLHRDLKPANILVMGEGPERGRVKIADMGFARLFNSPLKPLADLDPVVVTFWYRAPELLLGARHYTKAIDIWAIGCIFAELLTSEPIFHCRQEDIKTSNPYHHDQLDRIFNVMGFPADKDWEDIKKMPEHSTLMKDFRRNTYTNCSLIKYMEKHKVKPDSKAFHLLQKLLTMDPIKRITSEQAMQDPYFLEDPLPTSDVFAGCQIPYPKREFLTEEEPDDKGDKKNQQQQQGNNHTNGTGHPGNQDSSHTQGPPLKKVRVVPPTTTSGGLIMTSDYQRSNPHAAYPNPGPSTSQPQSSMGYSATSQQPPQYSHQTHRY

[24] = target: Vascular endothelial growth factor receptor 2 (Homo sapiens, UniProt P35968); format: functional
[25] = THP-1 cell cytotoxicity, dose response, cytotoxicity control for Vif-APOBEC3G degradation inhibitor project, THP-1 cells (AID 1117359); format: functional; details: Human immunodeficiency virus 1, THP-1
[26] = tested on: HEK293; assay: cells; details: Homo sapiens
[27] = tested on: HEK293; assay: cells; details: Homo sapiens; remark: listed apart in the source
[28] = target: Genome polyprotein (dengue virus type 2, UniProt P29990); assay: Dengue-2 NS5 methyltransferase inhibitors, primary screen, biochemical, confirmation dose response (AID 588689); format: functional
[29] = tested on: Vero; assay: Vero cell cytotoxicity, cytotoxicity control for flavivirus capping enzyme inhibitors (AID 588742); format: functional; details: Chlorocebus sabaeus
[30] = target: T5, Estrogen receptor (Homo sapiens, UniProt P03372);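 note: potency for inhibiting coactivator peptide recruitment to the receptor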
T5 sequence (P03372 whole entry): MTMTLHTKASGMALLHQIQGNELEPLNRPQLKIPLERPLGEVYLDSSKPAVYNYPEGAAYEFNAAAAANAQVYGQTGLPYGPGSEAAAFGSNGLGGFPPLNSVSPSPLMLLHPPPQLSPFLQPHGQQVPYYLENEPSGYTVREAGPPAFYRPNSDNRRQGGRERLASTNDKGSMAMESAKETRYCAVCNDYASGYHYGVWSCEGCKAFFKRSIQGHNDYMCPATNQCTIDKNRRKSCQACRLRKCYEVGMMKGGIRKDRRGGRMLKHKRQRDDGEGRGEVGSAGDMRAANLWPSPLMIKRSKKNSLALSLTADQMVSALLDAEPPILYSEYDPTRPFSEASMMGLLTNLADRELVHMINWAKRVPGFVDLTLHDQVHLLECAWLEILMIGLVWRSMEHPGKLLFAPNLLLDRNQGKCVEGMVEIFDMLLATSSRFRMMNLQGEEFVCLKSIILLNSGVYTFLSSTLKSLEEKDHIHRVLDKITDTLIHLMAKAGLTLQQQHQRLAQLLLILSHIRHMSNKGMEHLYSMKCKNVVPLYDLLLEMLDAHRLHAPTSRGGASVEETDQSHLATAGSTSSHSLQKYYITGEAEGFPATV

[31] = tested on: Escherichia coli; assay: microbe, parasite or virus in culture
[32] = target: Cell division cycle 7-related protein kinase (Homo sapiens, UniProt O00311); format: functional;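 note: value obtained from a kinome-wide kinase panel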
Chain of Cell division cycle 7-related protein kinase (O00311 whole entry): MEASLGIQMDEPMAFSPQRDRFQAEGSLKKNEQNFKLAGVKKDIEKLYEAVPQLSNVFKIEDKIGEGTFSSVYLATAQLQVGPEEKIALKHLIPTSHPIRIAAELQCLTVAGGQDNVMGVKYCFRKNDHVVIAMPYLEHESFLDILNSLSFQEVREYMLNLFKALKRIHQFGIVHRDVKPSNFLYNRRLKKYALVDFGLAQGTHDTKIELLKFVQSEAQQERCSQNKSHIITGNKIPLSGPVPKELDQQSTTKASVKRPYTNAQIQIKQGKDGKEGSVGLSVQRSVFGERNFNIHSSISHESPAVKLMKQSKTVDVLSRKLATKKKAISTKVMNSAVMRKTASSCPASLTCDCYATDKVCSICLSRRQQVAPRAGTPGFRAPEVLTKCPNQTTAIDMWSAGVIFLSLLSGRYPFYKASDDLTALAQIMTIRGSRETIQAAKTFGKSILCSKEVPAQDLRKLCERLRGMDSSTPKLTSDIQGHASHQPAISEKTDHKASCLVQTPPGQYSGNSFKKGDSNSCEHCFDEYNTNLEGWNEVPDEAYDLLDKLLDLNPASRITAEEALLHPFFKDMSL

[33] = target: Beta-2 adrenergic receptor (Homo sapiens, UniProt P07550); assay: beta2AR agonists driving receptor internalization, dose response, cell-based, FAP fluorogen, flow cytometry, cherry pick 1 (AID 588763); format: functional
Chain of Beta-2 adrenergic receptor (P07550 whole entry): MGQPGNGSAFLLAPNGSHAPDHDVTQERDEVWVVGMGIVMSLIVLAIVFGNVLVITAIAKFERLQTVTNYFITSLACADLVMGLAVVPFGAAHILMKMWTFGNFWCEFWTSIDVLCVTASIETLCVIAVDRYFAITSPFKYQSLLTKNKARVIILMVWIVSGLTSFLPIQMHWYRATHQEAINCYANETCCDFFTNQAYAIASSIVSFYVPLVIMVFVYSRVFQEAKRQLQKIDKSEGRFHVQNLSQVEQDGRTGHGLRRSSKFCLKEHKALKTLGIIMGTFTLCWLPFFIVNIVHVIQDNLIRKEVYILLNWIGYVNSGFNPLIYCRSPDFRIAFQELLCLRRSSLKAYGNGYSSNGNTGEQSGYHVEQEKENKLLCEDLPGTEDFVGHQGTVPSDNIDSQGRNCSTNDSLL

[34] = tested on: Escherichia coli; assay: microbe, parasite or virus in culture; remark: listed apart in the source
[35] = target: Cytochrome P450 3A4 (Homo sapiens, UniProt P08684);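 note: CYP3A4 tested as one member of a cytochrome P450 panel screen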
[36] = target: Cytochrome P450 2C19 (Homo sapiens, UniProt P33261); assay: Cytochrome panel assay with activity outcomes. Panel member name: p450-cyp2c19 Compounds with AC50 equal or less than 10 uM are considered active; format: functional; details: read-out: AC50
[37] = target: Cytochrome P450 2C9 (Homo sapiens, UniProt P11712)
Chain of Cytochrome P450 2C9 (P11712 whole entry): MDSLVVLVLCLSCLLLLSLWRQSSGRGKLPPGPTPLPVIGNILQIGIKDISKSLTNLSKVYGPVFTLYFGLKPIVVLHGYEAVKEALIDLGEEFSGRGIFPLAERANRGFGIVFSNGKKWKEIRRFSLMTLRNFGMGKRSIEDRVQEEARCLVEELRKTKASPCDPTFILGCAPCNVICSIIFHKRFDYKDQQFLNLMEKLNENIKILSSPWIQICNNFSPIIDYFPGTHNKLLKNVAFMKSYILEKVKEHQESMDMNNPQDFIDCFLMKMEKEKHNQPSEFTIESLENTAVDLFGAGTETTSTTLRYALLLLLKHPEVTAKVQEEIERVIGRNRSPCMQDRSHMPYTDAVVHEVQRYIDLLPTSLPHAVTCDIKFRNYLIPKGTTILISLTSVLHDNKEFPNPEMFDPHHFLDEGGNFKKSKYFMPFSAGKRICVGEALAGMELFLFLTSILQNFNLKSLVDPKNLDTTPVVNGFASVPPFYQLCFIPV

O=C(Nc1ccc(O)cc1C(=O)O)c1cccc(Br)c1
IC50 [1]: 19.1 µM (inactive)

CC(=O)Nc1ccc(Nc2c3ccccc3nc3ccccc23)cc1
EC50 [2]: 0.556 µM (active) | AC50 [3]: 13.8 µM (active) | AC50 [4]: 3.71 µM (active) | AC50 [5]: 4.9 µM (active) | EC50 [6]: > 91.1 µM (inactive) | AC50 [7]: 2.21 µM (active) | EC50 [8]: > 91.1 µM (inactive) | EC50 [9]: > 150 µM (inactive) | EC50 [10]: 10.5 µM (active) | EC50 [11]: > 180 µM (inactive) | EC50 [12]: 0.536 µM (active) | EC50 [13]: 1.32 µM (active)

O=c1cc(Cc2nc3ccccc3[nH]2)[nH]n1-c1ccccc1
Ki [14]: > 100 µM (inactive) | Ki [15]: 1.26 µM (active)

Cc1cccc(NC(=O)Nc2ccc(-c3nn(C)c4ncnc(N)c34)cc2)c1
Ki [16]: 0.00158 µM (active) | Ki [17]: 0.0398 µM (active) | Ki [18]: 0.501 µM (active)

COc1ccc(C[C@H]2c3cc(O)c(OC)cc3CC[N+]2(C)[O-])cc1O (stereo partly drawn)
AC50 [19]: 2.8 µM (active) | AC50 [20]: 13.9 µM (active) | AC50 [21]: 7.82 µM (active)

Cc1nn(C)c(=O)c(N)c1-c1ccccc1
Ki [22]: 50.1 µM (active) | Ki [23]: 31.6 µM (active)

Cc1n[nH]c2c1c(=O)n(C)c1ccccc21
Ki [16]: 0.0501 µM (active) | Ki [17]: 1 µM (active) | Ki [24]: 0.631 µM (active)

Cn1cccc1/C=C1\C(=O)NC(=O)N(Cc2ccccc2)C1=O
CC50 [25]: > 40 µM (active) | EC50 [26]: > 59.6 µM (inactive) | EC50 [27]: > 59.6 µM (inactive) | IC50 [28]: 23.4 µM (active) | CC50 [29]: > 40 µM (active)

Cc1occc1C(=O)NCc1cccc(CNC(=O)c2ccoc2C)c1
IC50 [30]: 19.7 µM (active) | AC50 [31]: 21.6 µM (active)

O=C(O)c1ccccc1Nc1ccnc(N2CCCCC2)n1
Ki [14]: > 100 µM (inactive) | Ki [32]: 3.98 µM (active)

Cc1ccc(NC(=O)c2ccc(N3CCOCC3)c([N+](=O)[O-])c2)cc1S(=O)(=O)N1CCOCC1
EC50 [33]: 10.1 µM (inactive)

COc1ccc(-c2cc(C(F)(F)F)nc(S(=O)(=O)CCC(=O)N3CCOCC3)n2)cc1
EC50 [33]: 25.3 µM (inactive)

COC(=O)c1cc(C(=O)Nc2cc(C)ccn2)cc([N+](=O)[O-])c1
AC50 [34]: 132 µM (active) | AC50 [31]: 63.9 µM (active)

CCN(CC)S(=O)(=O)N1CCC(C(=O)NC2CCCC2)CC1
AC50 [35]: 15.8 µM (inconclusive) | AC50 [36]: 39.8 µM (inconclusive) | AC50 [37]: 3.16 µM (inconclusive) | AC50 [34]: 26.2 µM (active)
